Values of other authors as cited in patent US20220310211A1, “NON-TRANSITORY COMPUTER-READABLE STORAGE MEDIUM, INFORMATION PROCESSING APPARATUS, AND INFORMATION PROCESSING METHOD” (FUJITSU LIMITED, priority 2021, published 2022).

Details: PubChem AID 1006; binary Active/Inactive

## Cc1cccc(Cc2cnc(O[Si](C)(C)C)[nH]2)c1C [CID603597]
  biological activity: Active
